Measurements reported in ChEMBL document CHEMBL3217508, “Synthesis and antifungal activity of the novel triazole compounds” (2013).
Values after ≈ are worked out from the molar mass of the structure shown.

Columns and labels:
Assay type in all cases: functional
Cryptococcus neoformans = assay: Antifungal activity against Cryptococcus neoformans assessed as growth inhibition after 72 hrs by microbroth dilution method
Kluyveromyces marxianus [1] = assay: Antifungal activity against Candida kefyr assessed as growth inhibition by microbroth dilution method
Aspergillus fumigatus = assay: Antifungal activity against Aspergillus fumigatus assessed as growth inhibition by microbroth dilution method
Candida albicans [2] = assay: Antifungal activity against Candida albicans Y0109 assessed as growth inhibition after 24 hrs by microbroth dilution method; conditions: Y0109, 24 h
Candida tropicalis = assay: Antifungal activity against Candida tropicalis assessed as growth inhibition by microbroth dilution method
Trichophyton rubrum [3] = assay: Antifungal activity against Trichophyton rubrum assessed as growth inhibition by microbroth dilution method
Candida albicans [4] = assay: Ratio of fluconazole MIC80 to compound MIC80 against Candida albicans SC5314
Candida parapsilosis = assay: Antifungal activity against Candida parapsilosis assessed as growth inhibition by microbroth dilution method; conditions: Lodderomyces parapsilosis
Kluyveromyces marxianus [5] = assay: Ratio of fluconazole MIC80 to compound MIC80 against Candida kefyr
Candida albicans [6] = assay: Antifungal activity against Candida albicans SC5314 assessed as growth inhibition after 24 hrs by microbroth dilution method; conditions: SC5314, 24 h
Trichophyton rubrum [7] = assay: Ratio of fluconazole MIC80 to compound MIC80 against Trichophyton rubrum

SMILES | MIC80 (Cryptococcus neoformans) [µg/mL] | MIC80 (Kluyveromyces marxianus [1]) [µg/mL] | MIC80 (Aspergillus fumigatus) [µg/mL] | MIC80 (Candida albicans [2]) [µg/mL] | MIC80 (Candida tropicalis) [µg/mL] | MIC80 (Trichophyton rubrum [3]) [µg/mL] | Ratio (Candida albicans [4]) | MIC80 (Candida parapsilosis) [µg/mL] | Ratio (Kluyveromyces marxianus [5]) | MIC80 (Candida albicans [6]) [µg/mL] | Ratio (Trichophyton rubrum [7])
CN(Cc1cn(Cc2cccc([N+](=O)[O-])c2)nn1)CC(O)(Cn1cncn1)c1ccc(F)cc1F (stereo not drawn) | 0.25 (≈ 0.516 µM) | 0.0156 | > 64 | < 0.125 | 0.0625 | 0.0625 | 32 | 0.0625 | 64 | 0.0156 (≈ 0.0322 µM) | 
CN(Cc1cn(Cc2ccc([N+](=O)[O-])cc2)nn1)CC(O)(Cn1cncn1)c1ccc(F)cc1F (stereo not drawn) | 0.25 (≈ 0.516 µM) | 0.25 | > 64 | 0.25 (≈ 0.516 µM) | 0.25 | 1 |  | 0.25 |  | 0.25 (≈ 0.516 µM) | 
CN(Cc1cn(Cc2ccccc2C#N)nn1)CC(O)(Cn1cncn1)c1ccc(F)cc1F (stereo not drawn) | 0.25 (≈ 0.538 µM) | 0.25 | > 64 | < 0.125 | 0.25 | 1 |  | 0.0625 |  | 0.25 (≈ 0.538 µM) | 
CN(Cc1cn(Cc2cccc(C#N)c2)nn1)CC(O)(Cn1cncn1)c1ccc(F)cc1F (stereo not drawn) | 4 (≈ 8.61 µM) | 1 | > 64 | 0.5 (≈ 1.08 µM) | 1 | 1 |  | 0.25 |  | 1 (≈ 2.15 µM) | 
CN(Cc1cn(Cc2ccc(C#N)cc2)nn1)CC(O)(Cn1cncn1)c1ccc(F)cc1F (stereo not drawn) | 0.25 (≈ 0.538 µM) | 0.0625 | > 64 | < 0.0125 | 0.0625 | 0.0625 | 8 | 0.0156 | 16 | 0.0625 (≈ 0.135 µM) | 32
CN(Cc1cn(Cc2cccc(F)c2)nn1)CC(O)(Cn1cncn1)c1ccc(F)cc1F (stereo not drawn) | 2 (≈ 4.37 µM) | 64 | > 64 | 0.25 (≈ 0.546 µM) | 0.5 | 16 |  | 0.5 |  | 0.25 (≈ 0.546 µM) | 
CN(Cc1cn(Cc2ccc(F)cc2)nn1)CC(O)(Cn1cncn1)c1ccc(F)cc1F (stereo not drawn) | 1 (≈ 2.19 µM) | 16 | > 64 | 0.5 (≈ 1.09 µM) | 0.25 | 4 |  | 0.25 |  | 1 (≈ 2.19 µM) | 
CN(Cc1cn(Cc2ccccc2Cl)nn1)CC(O)(Cn1cncn1)c1ccc(F)cc1F (stereo not drawn) | 0.25 (≈ 0.528 µM) | 16 | > 64 | 0.25 (≈ 0.528 µM) | 1 | 4 |  | 0.25 |  | 0.25 (≈ 0.528 µM) | 
CN(Cc1cn(Cc2ccc(Cl)cc2)nn1)CC(O)(Cn1cncn1)c1ccc(F)cc1F (stereo not drawn) | 1 (≈ 2.11 µM) | 0.25 | > 64 | < 0.125 | 1 | 4 |  | 0.25 |  | 0.25 (≈ 0.528 µM) | 
CN(Cc1cn(Cc2ccccc2Br)nn1)CC(O)(Cn1cncn1)c1ccc(F)cc1F (stereo not drawn) | 0.25 (≈ 0.482 µM) | 0.0625 | > 64 | 0.25 (≈ 0.482 µM) | 0.25 | 0.25 |  | 0.25 |  | 0.25 (≈ 0.482 µM) | 
CN(Cc1cn(Cc2cccc(Br)c2)nn1)CC(O)(Cn1cncn1)c1ccc(F)cc1F (stereo not drawn) | 0.25 (≈ 0.482 µM) | 0.25 | > 64 | < 0.125 | 0.25 | 1 |  | 0.0625 |  | 0.25 (≈ 0.482 µM) | 
CN(Cc1cn(Cc2ccc(Br)cc2)nn1)CC(O)(Cn1cncn1)c1ccc(F)cc1F (stereo not drawn) | 1 (≈ 1.93 µM) | 1 | > 64 | < 0.125 | 0.25 | 4 |  | 0.25 |  | 0.25 (≈ 0.482 µM) | 
Cc1ccccc1Cn1cc(CN(C)CC(O)(Cn2cncn2)c2ccc(F)cc2F)nn1 (stereo not drawn) | 0.25 (≈ 0.551 µM) | 0.25 | > 64 | 0.25 (≈ 0.551 µM) | 0.25 | 4 |  | 0.0625 |  | 0.25 (≈ 0.551 µM) | 
Cc1ccc(Cn2cc(CN(C)CC(O)(Cn3cncn3)c3ccc(F)cc3F)nn2)cc1 (stereo not drawn) | 1 (≈ 2.21 µM) | 0.25 | > 64 | < 0.125 | 1 | 1 |  | 0.0625 |  | 0.25 (≈ 0.551 µM) | 
CN(Cc1cn(Cc2ccccc2[N+](=O)[O-])nn1)CC(O)(Cn1cncn1)c1ccc(F)cc1F (stereo not drawn) | 1 (≈ 2.06 µM) | 0.25 | > 64 | < 0.125 | 1 | 4 |  | 0.25 |  | 0.25 (≈ 0.516 µM) | 
C[C@@H]1[C@H](O)[C@@H](C)/C=C/C=C/C=C/C=C/C=C/C=C/C=C/[C@H](O[C@@H]2O[C@H](C)[C@@H](O)[C@H](N)[C@@H]2O)C[C@@H]2O[C@](O)(C[C@@H](O)C[C@@H](O)[C@H](O)CC[C@@H](O)C[C@@H](O)CC(=O)O[C@H]1C)C[C@H](O)[C@H]2C(=O)O [AMPHOTERICIN B] | 4 (≈ 4.33 µM) | 0.25 | 32 | 4 (≈ 4.33 µM) | 0.25 | 0.125 |  | 1 |  | 8 (≈ 8.66 µM) | 
OC(Cn1cncn1)(Cn1cncn1)c1ccc(F)cc1F [FLUCONAZOLE] | 8 (≈ 26.1 µM) | 1 | > 64 | 0.5 (≈ 1.63 µM) | < 0.125 | 2 |  | < 0.125 |  | 0.5 (≈ 1.63 µM) | 
CCC(C)n1ncn(-c2ccc(N3CCN(c4ccc(OCC5COC(Cn6cncn6)(c6ccc(Cl)cc6Cl)O5)cc4)CC3)cc2)c1=O (stereo not drawn) [ITRACONAZOLE] | 0.125 (≈ 0.177 µM) | 0.0625 | 2 | 0.0625 (≈ 0.0886 µM) | < 0.0625 | 0.0625 |  | 0.0625 |  | < 0.0625 | 
CC(=O)N1CCN(c2ccc(OCC3COC(Cn4ccnc4)(c4ccc(Cl)cc4Cl)O3)cc2)CC1 (stereo not drawn) [KETOCONAZOLE] | 0.5 (≈ 0.941 µM) | 0.0625 | 0.125 | < 0.125 | < 0.125 | < 0.125 |  | < 0.125 |  | < 0.125 | 
CN(C/C=C/C#CC(C)(C)C)Cc1cccc2ccccc12 [TERBINAFINE] | 8 (≈ 27.5 µM) | 0.0625 | 0.25 | 2 (≈ 6.86 µM) | < 0.125 | < 0.125 |  | < 0.125 |  | 16 (≈ 54.9 µM) | 
C[C@@H](c1ncncc1F)[C@](O)(Cn1cncn1)c1ccc(F)cc1F [VORICONAZOLE] | < 0.125 | 0.0039 | < 0.125 | < 0.125 | < 0.125 | < 0.125 |  | 0.25 |  | 32 (≈ 91.6 µM) | 
